Converted amounts (≈) assume the structure as drawn. Read-outs that look alike come from different tables or passages of the source. Each block holds one molecule with its values, some of them ahead of it.
Key:
[1] = tested on: HT-29 human colon carcinoma; assay: Cytotoxicity screening against HT-29 cell culture; assay type: cell-based; settings: HT-29 cells, three days of incubation, Crystal Violet
Description: (§1) Cell Cultures. Cells were maintained in logarithmic phase of growth in eagle's Minimum Essential Medium, with Earle's Balanced Salts, with […] L-glutamine, with non-essential amino acids, without sodium bicarbonate (EMEM/neaa); supplemented with 10% Fetal Calf Serum (FCS), 10^−2 M sodium bicarbonate and 0,1 g/l penicillin-G+streptomycin sulfate.
(§2) A simple screening procedure has been carried out to determine and compare the antitumor activity of these compounds, using an adapted form of the method described by Bergeron et al. (1984)(1). The antitumor cells employed have been P-388 (suspension culture of a lymphoid neoplasm from DBA/2 mouse), A0549 (monolayer culture of a human lung carcinoma), HT-29 (monolayer culture of a human colon carcinoma) and MEL-28 (monolayer culture of a human melanoma).
(§3) A-549, HT-29 and MEL-28 cells were seeded into 16 mm wells at 2×10^4 cells per well in 1 ml aliquots of MEM 10FCS containing the indicated concentration of drug. A separate set of cultures without drug was seeded as control growth to ensure that cells remained in exponential phase of growth. All determinations were carried out in duplicate. After three days of incubation at 37° C., 10% CO2 in a 98% humid atmosphere, the wells were stained with 0.1% Crystal Violet. An approximately IC50 was determined by comparing the growth in wells with drug to the growth in wells control.

[2] = Stability observations (light, air, handling); assay type: physicochemical; settings: N-oxides, then o-quinolinoquinone, form
Procedure: Halitulin (2) was analyzed for C35H40N4O4 by HREIMS (m/z 580.3054, 100% Δmmu−0.5) confirmed by positive and negative FABMS (m/z 581 and 579, respectively). […] The duplicated part, according to the integration of the proton signals, was determined to be the aromatic portion of the molecule. Comparing the NMR data of the aliphatic part of 2 (Table 1) with haliclorensin (1)^7, together with the COSY, TOCSY, and HMBC data, established their identity. The incorporation of 1 in halitulin was further supported by the two MS fragments at m/z 168 (C11H22N+, 48%) and m/z/399 (MW^+-C12H24N, 90%), resulting from the preferable αβ to the aliphatic nitrogen-atoms^1 fragmentation at C-13,14 and C-12,13 respectively. Determination of the haliclorensin moiety in 2 left C22H14N3O4 (including the adjoining N-atom) with 17 degrees of unsaturation to be accounted for. […] Indeed, acetylation of 2, with a 1:1 mixture of Ac2O/pyridine, overnight at room temperature., afforded a very unstable tetra phenol acetate (3), on the basis of the HREIMS which gave the suitable molecular ion and also four subsequential losses of 42 mass units, and no loss of 60 mass units^13. The four phenol acetate groups were in full agreement with the 1773 cm^−1 IR absorption and the new methyls in the proton NMR. […]

MEL-28 human melanoma = assay: Cytotoxicity screening against MEL-28 cell culture; assay type: cell-based; settings: SK-MEL-28, 72 h, MEL-28 cells, three days of incubation, Crystal Violet
Description: as §1, §2, §3

[3] = tested on: A-549 human lung carcinoma; assay: Cytotoxicity screening against A-549 cell culture; assay type: cell-based; settings: A-549 cells, three days of incubation, Crystal Violet
Description: as §1, §2, §3

P-388 murine leukemia = assay: Cytotoxicity screening against P-388 cell culture; assay type: cell-based; settings: Mus musculus, P388; P-388 cells, approximate IC50 from growth vs control wells
Description: as §1, §2
P-388 cells were seeded into 16 mm wells at 1×10^4 cells per well in 1 ml aliquots of MEM 5FCS containing the indicated concentration of drug. A separate set of cultures without drug was seeded as control growth to ensure that cells remained in exponential phase of growth. All a 98% humid atmosphere, an approximately IC50 was determined by comparing the growth in wells with drug to the growth in wells control.

[4] = Cytotoxic activity, test not specified; assay type: cell-based; settings: qualitative statement, cell line not given

stability to light and air [2]: sensitive to light and air
Compound: CC1CCCCCCCN(CCCn2cc(-c3cc(O)c(O)c4ncccc34)c(-c3cc(O)c(O)c4ncccc34)c2)C1 (centres unmarked) [Halitulin, halitulin]
IC50 [1]: 0.0125 µg/mL (≈ 0.0215 µM) | IC50 ([1]; Homo sapiens, HT-29, 72 h, read-out: IC50): 0.012 µg/mL (≈ 0.0207 µM) | IC50 (MEL-28 human melanoma): 0.025 µg/mL (≈ 0.043 µM) | IC50 [3]: 0.0125 µg/mL (≈ 0.0215 µM) | IC50 ([3]; Homo sapiens, A549, 72 h, read-out: IC50): 0.012 µg/mL (≈ 0.0207 µM) | IC50 (P-388 murine leukemia): 0.025 µg/mL (≈ 0.043 µM)

Compound: CC1CCCCCN(CCCN)C1 (centres unmarked) [haliclorensin, N-(3′-arninopropyl)-3-methylazacyclodecane]
cytotoxic activity [4]: inactive

Reference: patent US6635656B1, “Cytotoxic alkaloids halitulin” (Pharma Mar, S.A., priority 1998, dated 2003)
